# Values of other authors as cited in patent US20240325474A1 (priority 2023, published 2024).
# Legend:
# [1] = system: Calu-3 lung epithelia cell lines
# [2] = system: SARS-COV-2; settings: Calu-3 cells
smiles,measurement,setting,value
C=C1CC[C@@H]2[C@](C)(CO)[C@H](O)CC[C@@]2(C)[C@@H]1C/C=C1/C(=O)OC[C@H]1O [andrographolide],CC50,[1],58.03 µg/mL
same,IC50,[2],34 nM
